In patent US20250152545A1, “NOVEL ANTIVIRAL COMPOSITIONS COMPRISING OLEIC ACID” (SUBINTRO LIMITED, priority 2021, published 2025):

Legend:
Format in all cases: cell-based
[1] = system: SARS-COV-2 (strain BetaCoV/France/IDF0571/2020); experiment: SARS-COV-2 viral load in apical wash of infected ALI cultured human nasal epithelium (RT-PCR); conditions: apical treatment; apilimod (as mesylate) 2 mg/ml 50 uL and/or surfactants 0.15% w/w polysorbate 80 + 0.2% w/w oleic acid; apical wash 48 hrs post inoculation; MOI 0.1
Text: Primary human nasal, trachea, and bronchial epithelial cells can be cultured and differentiated at an air-liquid interface (ALI), forming a pseudostratified mucociliary airway epithelium that is composed of ciliated cells, goblet cells, club cells, and basal cells with an arrangement closely reflective of an in vivo cellular organization. This in vitro model of human airway epithelium (HAE) cultured at an ALI (HAE-ALI) closely recapitulates many important characteristics of respiratory virus-host cell interactions seen in the infected upper and lower airways in vivo and has been used to study many human respiratory viruses, including SARS-COV-2. […]
Virus load was quantified by RT-PCR as reported by Pizzorno et al. (Cell Rep Med. 1 (4): 100059, 2020). […] Viral RNA will be quantified by RT-qPCR (Express One-Step Superscript™ qRT-PCR kit, Invitrogen). SARS-COV-2-specific primer and probes used for viral genome quantification as follows: Target: ORF1b-nsp14 Forward primer (HKU-ORF1b-nsp14F) 5′-[…]-3′ Reverse primer (HKU-ORF1b-nsp14R) 5′-[…]-3′ Probe (HKU-ORF1b-nsp141P) 5′-FAM-[…]-TAMRA-3′. Ct data were determined and relative changes in gene expression were calculated using the […] and shown as the fold reduction of genome copy number (ORF1b-nsp14 gene of SARS-COV-2) relative to the mean of vehicle treated infected control.

[2] = system: SARS-COV-2 infected ALI cultured human nasal epithelium; conditions: apical treatment, apilimod (as mesylate) 2 mg/ml 50 uL; 48 hrs post virus inoculation
[3] = system: H1N1 (strain A/Switzerland/7717739/2013)

Cc1cccc(/C=N/Nc2cc(N3CCOCC3)nc(OCCc3ccccn3)n2)c1 [apilimod]
reduction of viral load (genome copy number, ORF1b-nsp14) compared with virus infection control [1]: 0.1 log
inhibition of virus-induced reduction in TEER [2]: 48%

CCC(CC)O[C@@H]1C=C(C(=O)O)C[C@H](N)[C@H]1NC(C)=O [oseltamivir carboxylate]
reduction of viral load (assay control) ([3]; 10 µM in a basal chamber, Day 0, 24 hrs post inoculation): 1.7 log
reduction of viral load (genome copy number) compared with virus infection control ([3]; apical treatment, oseltamivir carboxylate 1 μM and/or surfactants 0.15% polysorbate 80 + 0.2% oleic acid, apical wash 24 hrs post inoculation): 1.0 log
